Reference: US12338296B2, “Peptides and compounds that bind to elongation initiation factor 4E” (AGENCY FOR SCIENCE, TECHNOLOGY AND RESEARCH, priority 2019, dated 2025)
pKd: −log10 of the molar value. Peptide text beside a SMILES is read from it.

Columns and labels:
eIF4E [1] = target: T1, eIF4E (Homo sapiens, UniProt P06730); assay: Surface plasmon resonance Kd determination on immobilized eIF4E (Biacore T100, CM5 chip); assay type: binding; settings: for binding to eIF4E compared with EE-02 / pKd: SPR; for binding to eIF4E compared with EE-02: in words; for pKd: eIF4E immobilized on CM5 chip, 1:1 binding model, three separate titrations; for Fold change: KD relative to EE-2 (SPR)
T1 construct: made in house; Plasmid and cells were provided by Cyclacel Ltd., Dundee
T1 sequence (P06730 whole entry): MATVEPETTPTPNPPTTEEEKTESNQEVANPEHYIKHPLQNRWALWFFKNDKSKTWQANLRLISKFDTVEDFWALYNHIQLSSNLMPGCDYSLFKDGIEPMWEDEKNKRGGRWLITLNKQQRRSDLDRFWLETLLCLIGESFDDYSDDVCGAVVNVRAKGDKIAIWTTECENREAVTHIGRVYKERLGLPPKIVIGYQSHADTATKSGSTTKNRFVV
Method: Surface Plasmon Resonance (for Structural Activity Relationship (SAR) Tables)
For stock peptide solutions, the compounds were dissolved in 100% DMSO to a concentration of 10 mM; further dilutions of the peptide stock solutions into DMSO and/or running buffer were performed immediately prior to analysis. Running buffer consisted of 10 mM Hepes pH 7.6, 0.15 M NaCl, and 0.1% Tween20. Stock/DMSO diluted peptide solutions were diluted into 1.03× running buffer to make a peptide solution with 3% DMSO final concentration. […] Surface Plasmon resonance experiments were performed on a Biacore T100 machine.
Pure eIF4E was immnobilized on a CM5 sensor chip. The CM5 chip was conditioned with a 6 s injection of 100 mM HCL, followed by a 6 s injection of 0.1% SDS and completed with a 6 s injection of 50 mM NaOH at a flow rate of 100 μl/min. Activation of the sensor chip surface was performed with a mixture of NHS (115 mg ml^−1) and EDC (750 mg ml^−1) for 7 min at 10 μl min^−1. […] The amount of eIF4E immobilized on the activated surface was controlled by altering the contact time of the protein solution and was approximately 1000 RU. After the immobilization of the protein, a 7-min injection (at 10 μl min^−1) of 1 M ethanolamine (pH 8.5) was used to quench excess active succinimide ester groups.
Six buffer blanks were first injected to equilibrate the instrument fully and then a solvent correction curve was performed followed by a further two blank injections. The solvent correction curve was setup by adding varying amount of 100% DMSO to 1.03× running buffer to generate a range of DMSO solutions (3.8%, 3.6%, 3.4%, 3.2%, 3%, 2.85%, 2.7% and 2.5% respectively). Using a flow rate of 50 μl/min, compounds were injected for 60 s and dissociation was monitored for 180 s. The data collection rate was 10 Hz. Kds were determined using the BiaEvaluation software (Biacore) and calculated from both the response of the eIF4E coated CM5 chips at equilibrium and also kinetically from the dissociation and association phase data for each of the peptides. Both the equilibrium and kinetic data were fitted to 1:1 binding models. Each individual peptide Kd was determined from three separate titrations. Within each titration at least two concentration points were duplicated to ensure stability and robustness of the chip surface.
Kd were determined using surface plasmon resonance (SPR) as described in Methods.

eIF4E [2] = target: T1, eIF4E; assay: Tryptophan quenching experiments; assay type: binding; settings: 1 μM eIF4E, 0.01-20 μM titrant, excitation 290 nm, emission 355 nm; FIG. 2
Method: Tryptophan Quenching Experiments
Tryptophan quenching experiments were performed using an EnVision® multiplate reader with black matte 96-well plates. […] Concentrations tested ranged from 0.01-20 μM. Samples were excited with UV light at 290 nm to minimise contribution from tyrosine fluorescence. Tryptophan was measured at an emission wavelength of 355 nm.

In the case of CSCC[C@@H]1NC(=O)[C@H](CCC(=O)O)NC(=O)[C@@H](NC(=O)[C@H](C)N)CSSC[C@@H](C(=O)NCC(N)=O)NC(=O)[C@H](CC(=O)O)NC(=O)[C@H](CCC(N)=O)NC(=O)[C@H](Cc2ccc(O)cc2)NC(=O)[C@H](Cc2ccccc2)NC(=O)CNC1=O [EE-35] (HELM PEPTIDE1{A.C.E.M.G.F.Y.Q.D.C.G.[am]}$PEPTIDE1,PEPTIDE1,2:R3-10:R3$$$V2.0), the “binding to eIF4E compared with EE-02” value (eIF4E [1]) was “bound more tightly than EE-02”.

In the case of CSCC[C@@H]1NC(=O)[C@H](CCC(=O)O)NC(=O)[C@@H](NC(=O)[C@H](C)N)CSSC[C@@H](C(=O)NCC(N)=O)NC(=O)[C@H](CC(=O)O)NC(=O)[C@H](CCC(N)=O)NC(=O)[C@H](CC(C)C)NC(=O)[C@H](Cc2ccccc2)NC(=O)CNC1=O [EE-34] (HELM PEPTIDE1{A.C.E.M.G.F.L.Q.D.C.G.[am]}$PEPTIDE1,PEPTIDE1,2:R3-10:R3$$$V2.0), the pKd (eIF4E [1]) was < 4.30.

CSCC[C@@H]1NC(=O)[C@H](CCC(=O)O)NC(=O)[C@@H](N)CSSC[C@@H](C(N)=O)NC(=O)[C@H](CC(=O)O)NC(=O)[C@H](C)NC(=O)[C@H](Cc2ccccc2)NC(=O)[C@H](Cc2ccccc2)NC(=O)CNC1=O [EE-44] (HELM PEPTIDE1{C.E.M.G.F.F.A.D.C.[am]}$PEPTIDE1,PEPTIDE1,1:R3-9:R3$$$V2.0) showed a Fold change (eIF4E [1]) of 0.4.

CSCC[C@@H]1NC(=O)[C@H](CCC(=O)O)NC(=O)[C@@H](NC(=O)[C@H](C)N)CSSC[C@@H](C(=O)NCC(N)=O)NC(=O)[C@H](CC(=O)O)NC(=O)[C@H](CCCCN)NC(=O)[C@H](Cc2ccccc2)NC(=O)[C@H](Cc2ccccc2)NC(=O)CNC1=O [EE-39] (HELM PEPTIDE1{A.C.E.M.G.F.F.K.D.C.G.[am]}$PEPTIDE1,PEPTIDE1,2:R3-10:R3$$$V2.0) gave a Fold change (eIF4E [1]) of 0.5.

CSCC[C@@H]1NC(=O)[C@H](CCC(=O)O)NC(=O)[C@@H](NC(=O)[C@H](C)N)CSSC[C@@H](C(=O)NCC(N)=O)NC(=O)[C@H](CC(=O)O)NC(=O)[C@H](CCC(N)=O)NC(=O)[C@H](Cc2ccccc2)NC(=O)[C@H](Cc2ccc(O)cc2)NC(=O)CNC1=O [EE-30] (HELM PEPTIDE1{A.C.E.M.G.Y.F.Q.D.C.G.[am]}$PEPTIDE1,PEPTIDE1,2:R3-10:R3$$$V2.0) was tested, and the “binding to eIF4E compared with EE-02” value (eIF4E [1]) was “bound more tightly than EE-02”.

CSCC[C@@H]1NC(=O)[C@H](CCC(=O)O)NC(=O)[C@@H](NC(=O)[C@H](C)N)CSSC[C@@H](C(=O)NCC(N)=O)NC(=O)[C@H](CC(=O)O)NC(=O)[C@H](CCC(N)=O)NC(=O)[C@H](C)NC(=O)[C@H](Cc2ccccc2)NC(=O)CNC1=O [EE-2E] (HELM PEPTIDE1{A.C.E.M.G.F.A.Q.D.C.G.[am]}$PEPTIDE1,PEPTIDE1,2:R3-10:R3$$$V2.0) was tested, and the pKd (eIF4E [1]) was < 4.30.

In the case of CSCC[C@@H]1NC(=O)[C@H](C)NC(=O)[C@@H](NC(=O)[C@H](C)N)CSSC[C@@H](C(=O)NCC(N)=O)NC(=O)[C@H](CC(=O)O)NC(=O)[C@H](CCC(N)=O)NC(=O)[C@H](Cc2ccccc2)NC(=O)[C@H](Cc2ccccc2)NC(=O)CNC1=O [EE-2A] (HELM PEPTIDE1{A.C.A.M.G.F.F.Q.D.C.G.[am]}$PEPTIDE1,PEPTIDE1,2:R3-10:R3$$$V2.0; bridges inferred), the pKd (eIF4E [1]) was 4.96.

In the case of “KKRYSRDQLVAL (Synthetic peptide PHAGESOL) [reference compound]”, the “tryptophan quenching of eIF4E” value (eIF4E [2]) was “significantly lower amounts of tryptophan quenching”.

With CSCC[C@@H]1NC(=O)[C@H](CCC(=O)O)NC(=O)[C@@H](NC(=O)[C@H](C)N)CSSC[C@@H](C(=O)NCC(N)=O)NC(=O)[C@H](CC(=O)O)NC(=O)[C@H](CCC(N)=O)NC(=O)[C@H](Cc2ccccc2)NC(=O)[C@H](Cc2ccccc2)NC(=O)[C@@H]2CCCN2C1=O [EE-29] (HELM PEPTIDE1{A.C.E.M.P.F.F.Q.D.C.G.[am]}$PEPTIDE1,PEPTIDE1,2:R3-10:R3$$$V2.0) the pKd (eIF4E [1]) was < 4.30.

For CSCC[C@@H]1NC(=O)[C@H](CCC(=O)O)NC(=O)[C@@H](NC(=O)[C@H](C)N)CSSC[C@@H](C(=O)NCC(N)=O)NC(=O)[C@H](CC(=O)O)NC(=O)[C@H](CCC(N)=O)NC(=O)[C@H](Cc2ccccc2)NC(=O)[C@H](CC(C)C)NC(=O)CNC1=O [EE-33] (HELM PEPTIDE1{A.C.E.M.G.L.F.Q.D.C.G.[am]}$PEPTIDE1,PEPTIDE1,2:R3-10:R3$$$V2.0), the pKd (eIF4E [1]) was < 4.30.

CSCC[C@@H]1NC(=O)[C@H](CCC(=O)O)NC(=O)[C@@H](NC(=O)[C@H](C)N)CSSC[C@@H](C(=O)NCC(N)=O)NC(=O)[C@H](CC(=O)O)NC(=O)[C@H](CCC(N)=O)NC(=O)[C@H](Cc2ccccc2)NC(=O)[C@H](Cc2ccccc2)NC(=O)CCNC1=O [EE-27] (HELM PEPTIDE1{A.C.E.M.[bAla].F.F.Q.D.C.G.[am]}$PEPTIDE1,PEPTIDE1,2:R3-10:R3$$$V2.0) was tested, and the pKd (eIF4E [1]) was < 4.30.

In the case of C[C@H](N)C(=O)N[C@H]1CSSC[C@@H](C(=O)NCC(N)=O)NC(=O)[C@H](CC(=O)O)NC(=O)[C@H](CCC(N)=O)NC(=O)[C@H](Cc2ccccc2)NC(=O)[C@H](Cc2ccccc2)NC(=O)CNC(=O)[C@H](C)NC(=O)[C@H](CCC(=O)O)NC1=O [EE-2B] (HELM PEPTIDE1{A.C.E.A.G.F.F.Q.D.C.G.[am]}$PEPTIDE1,PEPTIDE1,2:R3-10:R3$$$V2.0), the pKd (eIF4E [1]) was < 4.30.

With CSCC[C@@H]1NC(=O)[C@H](CCC(=O)O)NC(=O)[C@@H](NC(=O)[C@H](C)N)CSSC[C@@H](C(=O)NCC(N)=O)NC(=O)[C@H](CC(=O)O)NC(=O)CNC(=O)[C@H](Cc2ccccc2)NC(=O)[C@H](Cc2ccccc2)NC(=O)CNC1=O [EE-40] (HELM PEPTIDE1{A.C.E.M.G.F.F.G.D.C.G.[am]}$PEPTIDE1,PEPTIDE1,2:R3-10:R3$$$V2.0) the Fold change (eIF4E [1]) was 1.9 and the pKd (eIF4E [1]) was 6.40.

CSCC[C@@H]1NC(=O)[C@H](CCC(=O)O)NC(=O)[C@@H](NC(=O)[C@H](C)N)CSSC[C@@H](C(=O)NCC(N)=O)NC(=O)[C@H](CC(=O)O)NC(=O)[C@H](CC(C)C)NC(=O)[C@H](Cc2ccccc2)NC(=O)[C@H](Cc2ccccc2)NC(=O)CNC1=O [EE-41] (HELM PEPTIDE1{A.C.E.M.G.F.F.L.D.C.G.[am]}$PEPTIDE1,PEPTIDE1,2:R3-10:R3$$$V2.0) was tested, and the Fold change (eIF4E [1]) was 0.9.

For CSCC[C@@H]1NC(=O)[C@H](CCC(=O)O)NC(=O)[C@@H](NC(=O)[C@H](C)N)CSSC[C@@H](C(=O)NCC(N)=O)NC(=O)[C@H](CC(=O)O)NC(=O)[C@H](CCC(N)=O)NC(=O)[C@H](Cc2ccccc2)NC(=O)[C@H](Cc2ccccc2)NC(=O)[C@H](C)NC1=O [EE-2C] (HELM PEPTIDE1{A.C.E.M.A.F.F.Q.D.C.G.[am]}$PEPTIDE1,PEPTIDE1,2:R3-10:R3$$$V2.0; bridges inferred), the pKd (eIF4E [1]) was 4.49.

With CSCC[C@@H]1NC(=O)[C@H](CCC(=O)O)NC(=O)[C@@H](NC(=O)[C@H](C)N)CSSC[C@@H](C(=O)NCC(N)=O)NC(=O)[C@H](CC(=O)O)NC(=O)[C@H](CCC(N)=O)NC(=O)[C@H](CC(C)C)NC(=O)[C@H](CC(C)C)NC(=O)CNC1=O [EE-38] (HELM PEPTIDE1{A.C.E.M.G.L.L.Q.D.C.G.[am]}$PEPTIDE1,PEPTIDE1,2:R3-10:R3$$$V2.0) the pKd (eIF4E [1]) was < 4.30.

In the case of CSCC[C@@H]1NC(=O)[C@H](CCC(=O)O)NC(=O)[C@@H](NC(=O)[C@H](C)NC(C)=O)CSSC[C@@H](C(=O)NCC(N)=O)NC(=O)[C@H](CC(=O)O)NC(=O)[C@H](CCC(N)=O)NC(=O)[C@H](Cc2ccccc2)NC(=O)[C@H](Cc2ccccc2)NC(=O)CNC1=O [EE-11], the Fold change (eIF4E [1]) was 4.9 and the pKd (eIF4E [1]) was 6.00.
